From ChEMBL document CHEMBL1201862, “PubChem BioAssay data set” (2004)
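Results reflect a 48-hour exposure of cells in 96-well plates to compound at five concentrations. GI50 = concentration required for 50% inhibition of growth.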 Activity calls are given as the source filed them. Rule as the data show it: active = GI50 up to about 1.1 µM and inactive = higher.

How the values were obtained:
Assay in all cases: NCI-60 cell line screen, 48 h
HOP-18 = system: HOP-18
UO-31 = system: UO-31
HCT-116 = system: HCT-116
A549 = system: A549
786-0 = system: 786-0
OVCAR-8 = system: OVCAR-8
RXF 393 = system: RXF 393
XF498 = system: XF498
OVCAR-3 = system: OVCAR-3
SK-MEL-28 = system: SK-MEL-28
DMS-273 = system: DMS-273
HL-60 = system: HL-60
MOLT-4 = system: MOLT-4
SF-295 = system: SF-295
M14 = system: M14
CAKI-1 = system: CAKI-1
SK-MEL-5 = system: SK-MEL-5
NCI-H23 = system: NCI-H23
LOX IMVI = system: LOX IMVI
SK-OV-3 = system: SK-OV-3
U-251 = system: U-251
SK-MEL-2 = system: SK-MEL-2
OVCAR-5 = system: OVCAR-5
DLD-1 = system: DLD-1
TK-10 = system: TK-10
M19-MEL = system: M19-MEL
HOP-62 = system: HOP-62
NCI-H226 = system: NCI-H226
UACC-62 = system: UACC-62
NCI-H522 = system: NCI-H522
SN12C = system: SN12C
RPMI-8226 = system: RPMI-8226
KM12 = system: KM12
KM-20L2 = system: KM-20L2
SF-268 = system: SF-268
ACHN = system: ACHN
CCRF-CEM = system: CCRF-CEM
A498 = system: A498
HT-29 = system: HT-29
DMS-114 = system: DMS-114
SNB-19 = system: SNB-19
SR = system: SR
UACC-257 = system: UACC-257
COLO 205 = system: COLO 205
EKVX = system: EKVX
SNB-75 = system: SNB-75
NCI-H460 = system: NCI-H460
HOP-92 = system: HOP-92
HCT-15 = system: HCT-15
LXFL 529 = system: LXFL 529
SW-620 = system: SW-620
Malme-3M = system: Malme-3M
SNB-78 = system: SNB-78
IGROV-1 = system: IGROV-1
HCC 2998 = system: HCC 2998
K562 = system: K562
OVCAR-4 = system: OVCAR-4
RXF 631 = system: RXF 631
SF-539 = system: SF-539

Measured: GI50

CC1=NN(c2ccccc2)C(=O)C1=C1SCCCS1
31.9 µM: HCT-15
inactive: HOP-18 20.8 µM | UO-31 34.2 µM | HCT-116 13.8 µM | A549 25.4 µM | 786-0 35.5 µM | OVCAR-8 31.7 µM | RXF 393 28.5 µM | XF498 16.6 µM | OVCAR-3 22.3 µM | SK-MEL-28 48.6 µM | DMS-273 32.7 µM | HL-60 19.5 µM | MOLT-4 16 µM | SF-295 27.2 µM | M14 49.4 µM | CAKI-1 15 µM | SK-MEL-5 31.2 µM | NCI-H23 29.2 µM | LOX IMVI 23.6 µM | SK-OV-3 46.3 µM | U-251 18.1 µM | SK-MEL-2 56 µM | OVCAR-5 54 µM | DLD-1 21.5 µM | TK-10 23.8 µM | M19-MEL 32.1 µM | HOP-62 42.1 µM | NCI-H226 29.3 µM | UACC-62 17.3 µM | NCI-H522 18.1 µM | SN12C 28.2 µM | RPMI-8226 19.7 µM | KM12 21.9 µM | KM-20L2 31.4 µM | SF-268 44 µM | ACHN > 100 µM | CCRF-CEM 11.7 µM | A498 45.7 µM | HT-29 32 µM | DMS-114 20.8 µM | SNB-19 22.5 µM | SR 14.3 µM | UACC-257 28.2 µM | COLO 205 15.9 µM | EKVX 30.1 µM | SNB-75 > 100 µM | NCI-H460 35.2 µM | HOP-92 25.5 µM | LXFL 529 34.6 µM | SW-620 13.2 µM | Malme-3M 41.8 µM | SNB-78 66.2 µM | IGROV-1 30.2 µM | HCC 2998 37 µM | K562 21.1 µM

Cc1ccc(NC(=O)c2c(C)nc(=O)n3c2N(/N=C/c2ccc(Cl)cc2)CC3)cc1
inactive: UO-31 11.7 µM | HCT-116 13.2 µM | 786-0 17.8 µM | OVCAR-4 14.4 µM | XF498 15.6 µM | SK-MEL-28 16.3 µM | DMS-273 19.2 µM | HL-60 23.1 µM | MOLT-4 23.8 µM | M14 17.1 µM | CAKI-1 18.2 µM | NCI-H23 14.2 µM | SK-OV-3 21.3 µM | RXF 631 14.7 µM | SK-MEL-2 18.7 µM | DLD-1 16.6 µM | SF-539 11.9 µM | M19-MEL 19.9 µM | HOP-62 18.7 µM | NCI-H226 16 µM | UACC-62 13.4 µM | NCI-H522 10.4 µM | SN12C 14.7 µM | RPMI-8226 > 10 µM | SF-268 12.7 µM | ACHN 16.3 µM | CCRF-CEM 26.9 µM | A498 15.9 µM | DMS-114 16.5 µM | SR 24.5 µM | COLO 205 21.7 µM | SNB-75 18.8 µM | HOP-92 20 µM | LXFL 529 16.8 µM | Malme-3M 21.4 µM | SNB-78 19.8 µM | IGROV-1 18.2 µM | HCC 2998 17.9 µM | K562 26.7 µM
